The values that follow come from US5369111A, “Modulator agent and use thereof” (University of Vermont, priority 1992, dated 1994).

Data set [1] deals with S180/A10 cells. The data set can be described thus: Modulator potency in MDR cells: reversal of acquired resistance, S180/A10. Format: cell-based, murine. The settings on record: A10 cells, 90 fold ADM resistance. On the procedure: (§1) Mid-exponential cultures were used for all assays. The RCC-2 and RCC-5 cell lines were seeded into 24-well plates at 2×10^4 cells/well and allowed to attach to the substratum for 16-18 h prior to treatment. The S180 cell lines were seeded into culture tubes at 1×10^5 cells/ml and treated immediately. Cytotoxicity was determined by quantitation of population growth after 72 h incubation by electronic particle counter (Coulter Electronics, Hialeah, Fla.). The human tumor cell lines were used in a clonogenic assay for cytotoxicity. Cells were seeded at 300 cells/dish, incubated overnight and then treated. Colonies were scored 7-11 days later. In all assays of analog modulation of drug sensitivity, the analog was added minutes prior to the addition of cytotoxic drug.
(§2) To evaluate the ability of vindoline and the two diastereoisomeric VBL analogs to modulate the MDR phenotype (acquired resistance) of the A3 and A10 cell stains, we determined the concentration of compound required to restore drug sensitivities to parental levels. This was done by exposing the MDR cell line to a concentration range of modulator in the presence VBL, VCR and ADM at the respective IC70s of the parental cell line. The cytotoxicity curves for A3 and A10 cells, shown in FIG. 5, are distinctive among the three vinca alkaloids examined. In each cell line, there was a minimum concentration of modulator that elicited 70% growth inhibition for each drug - i.e. the reversing concentration.
*The minimal concentration of modulator required to restore the drug
sensitivity of S180/MDR cell strains to that of parental S180 cells. Data
are the averages of 2-3 separate experiments, S.D. ≤20%.

Data set [2] concerns RCC-2 and RCC-5 cells. The data set can be described thus: Modulation of intrinsic drug resistance, RCC-2 and RCC-5. The class given is cell-based, rat. The settings on record: at the non-toxic concentration limit of 1-2 μM. On the procedure:
as §1

Data set [3] concerns S180 cell system (S180, A3, A10). The data set can be described thus: Inherent cytotoxicity in the S180 cell system (S180, A3, A10). The class given is cell-based, murine. Particulars: for IC50: Mus musculus; for inherent cytotoxicity / resistance profile (in words): S180, A3, A10.
Excerpt: (§3) The analogs were examined in a panel of tumor cell lines of both intrinsic and acquired drug resistance, as described in Table 1. The rat colon adenocarcinoma cell lines RCC-2 and RCC-5 (ref. 13) were maintained in Ham's F12 medium supplemented with 5% heat-inactivated, fetal bovine serum (Sterile Systems. Hyclone, Logan, Utah). The two rat colon cancer cell lines differ in their degree of cellular differentiation; whereas the RCC-2 cell line is undifferentiated, the RCC-5 cell line is highly mucinous. The human epidermoid carcinoma cell line KB-3-1 and its MDR variant KB-Vl, selected by VBL treatment (ref. 14; courtesy of M. Gottesman. National Cancer Institute), was maintained in DMEM medium supplemented with 10%, heat-inactivated, fetal bovine serum. The murine sarcoma cell line […] and its MDR strains A3 and A10 selected by ADM treatment (ref. 15; courtesy of T. Tritton, Dept. Pharmacology, Univ. Vermont). were maintained in DMEM medium supplemented with 10% heat-inactivated, horse serum (Hazelton Biolog. Lenexa, Kans.). Stock cultures were subcultured twice weekly upon reaching the late exponential phase of population growth: population doubling times were 18-24 h. Antibiotics were not used in stock or experimental cultures. The MDR cell strains were grown in drug-free media for 48 h prior to experimental use.
as §1
FIG. 2 represents the toxicity of the vinca alkaloid compounds to population growth. Vindoline, vincovaline or the analog, C-20'-deoxy vincovaline was added, at various concentrations, to S180 (.cndot.), A3 (o), or A10 (Δ) cell cultures. The population cell number was determined 72 hours later.

The test system of data set [4] is S180 MDR cell strains A3 and A10. The data set can be described thus: Modulation of acquired drug resistance in the S180 MDR cell strains A3 and A10. Particulars: A3 and A10. Format: cell-based, murine. The protocol:
as §1, §2
FIG. 5 represents the modulation of multidrug resistance in the MDR cell strains by the vinca alkaloids. Vindoline (A), vincovaline (B), or the analog C-20'-deoxy vincovaline (C) was added, at various concentrations, to A3 (closed symbols) or A10 (opened symbols) cell cultures containing the parental IC70 of each drug: 2.0×10^-7 M. ADM (circles: 1.5×10^-8 M VBL (triangles); and 4.5×10^-8 M; VCR (squares). Population growth was determined 72 hours later.
FIG. 6 represents the relationship between cellular drug resistance level and the minimal modulator concentration required for complete reversal of drug resistance. The drugs examined were ADM (o), VBL (Δ), and VCR (.quadrature.). The amount (concentration) of modulator, necessary to reverse each level of drug resistance contained in the A3 and A10 cell lines, was determined from data such as those of FIG. 5. The values presented were averaged from duplicate samples of two separate experiments, S.D.<15% of the mean. The arrows denote the non-toxic concentration limit for the modulator; in the case of Vincovaline this value is dependent on the MDR cell strain, 2×10^-5 M, A3; 5×10^-5 M. A10.
FIG. 11 represents the modulation of multidrug resistance in the S180 MDR cell strains A3 and A10. The cellular drug resistance level is plotted against the minimal concentration of C-20'-deoxy deethyl vincovaline required for the complete reversal of drug resistance to ADM (o), VBL (Δ), and VCR (.quadrature.). In the case of high level ADM resistance […], the sensitivity of the cells was restored to 80% of the parental value. The arrow denotes the non-toxic concentration limit of the analog.

A short description of data set [5]: Inhibition of population growth of rat colon cancer cell lines RCC-2 and RCC-5. The class given is cell-based. Particulars: rat, rcc-2 and rcc-5 cells; read-out: non-toxic concentration limit. The source says:
The analogs were examined in a panel of tumor cell lines of both intrinsic and acquired drug resistance, as described in Table 1. The rat colon adenocarcinoma cell lines RCC-2 and RCC-5 (ref. 13) were maintained in Ham's F12 medium supplemented with 5% heat-inactivated, fetal bovine serum (Sterile Systems. Hyclone, Logan, Utah). The two rat colon cancer cell lines differ in their degree of cellular differentiation; whereas the RCC-2 cell line is undifferentiated, the RCC-5 cell line is highly mucinous. The human epidermoid carcinoma cell line KB-3-1 and its MDR variant KB-Vl, selected by VBL treatment (ref. 14; courtesy of M. Gottesman. National Cancer Institute), was maintained in DMEM medium supplemented with 10%, heat-inactivated, fetal bovine serum. […]
Mid-exponential cultures were used for all assays. […] Cytotoxicity was determined by quantitation of population growth after 72 h incubation by electronic particle counter (Coulter Electronics, Hialeah, Fla.). […] Colonies were scored 7-11 days later. […]
FIG. 7 represents the toxicity of analog C-20'-deoxy vincovaline (A) and C-20'-deoxy deethyl vincovaline (B) to population growth of the rat colon adenocarcinoma cell lines. The congener was added at various concentrations to RCC-2 (.cndot.) and RCC-5 (Δ) cell cultures and the population cell number was determined 72 hours later. […]

The subject of data set [6] is S180 cells, parental. The data set can be described thus: Modulation of intrinsic drug resistance, parental S180. The class given is cell-based, murine. The settings on record: for effect on VBL toxicity in parental S180 cells (in words): 50-fold concentration range; for modulation of sensitivity of parental S180 cells to VBL, VCR and ADM (in words): all three drugs. On the procedure: as §1
The ability of the compounds to modulate drug sensitivity in parental cells was studied over a range of concentrations of each compound, from 10^-6 M to the non-toxic (IC10-20) or solubility limit. […] From such experiments, we determined a sensitivity index derived from the IC50 of the drug without modulator treatment divided by the drug IC50 at each concentration of modulator.
When the sensitivity index for each drug, VBL, VCR and ADM is plotted versus the modulator concentration (FIG. 4), we can compare the relative potencies of the compounds as modulators of drug toxicity to the parental S180 cells.
*calculated as the IC50 of the drug alone divided by the IC50 o
the [drug modulator] combination. Data are presented from tretments with
FIG. 4 represents the potency of the vinca alkaloid compounds as modulators of drug sensitivity in S180 cells. The enhancement of sensitivity was calculated as the sensitivity index=IC50 of the drug alone divided by the IC50 of the drug+modulator. The IC50s for ADM (o) VBL (Δ), or VCR (.quadrature.) were determined over a concentration range of each modulator from data such as those depicted in FIG. 3. The values presented were averaged from duplicate samples of two separate experiments, S.D. <15% of the mean.

Data set [7] is described as follows: Inhibition of population growth (cytotoxicity), MDR strain S180/A10. The class given is cell-based, mouse. The settings on record: mouse, s180/a10 cells; read-out: non-toxic concentration limit for the modulator.
Excerpt: as §3, §1

A short description of data set [8]: Inhibition of population growth (cytotoxicity), MDR strain S180/A3. The settings on record: mouse, s180/a3 cells; read-out: non-toxic concentration limit for the modulator. The class given is cell-based, mouse.
Excerpt: as §3, §1

[9] abbreviates: listed as C-20'-deoxy Vincovaline.

The structures appear in SMILES notation. “Also recorded” adds a separate entry of the source. Read-outs that look alike come from different tables or passages of the source.

Broadly, the IC50 is the concentration needed to halve the response being measured. Consider `CC[C@H]1C[C@H]2CN(CCc3c([nH]c4ccccc34)[C@](C(=O)OC)(c3cc4c(cc3OC)N(C)[C@H]3[C@@](O)(C(=O)OC)[C@H](OC(C)=O)[C@]5(CC)C=CCN6CC[C@]43[C@@H]65)C2)C1` [C-20'-deoxy vincovaline, C-20'-deoxy C-14', 16', 20'-epi-VBL], for which the “reversal of high level ADM resistance (in words)” value in data set [1] is given as “reversing completely the high level ADM resistance (90 fold)”. For the same compound, in data set [2], the “sensitization to VBL, VCR and ADM” value is listed as 2- to 4 fold. The IC50 in data set [3] (S-180, read-out: IC50 (inhibition of cell growth)) was > 10 µM. In addition, the “inherent cytotoxicity / resistance profile (in words)” value is “very weak cytotoxic agent” in data set [3] and “cross-resistance” in data set [3] (16', 20'-epi-VBL). Also, the “non-toxic concentration limit (in words)” value in data set [3] (S180 cell system) is “beyond the limits of solubility”. Moreover, the “modulation of cellular resistance to VBL, VCR and ADM in MDR cell strains (in words)” value in data set [4] is “reverses MDR in the A3 and A10 cell strains, without evidence of drug-specificity”; in data set [4] (16', 20'-epi-VBL), “modulators of cellular resistance to VBL, VCR and ADM”. In addition, the MNTC at 72 h in data set [5] fell in the range of 1000 to 2000 nM. Besides, the “effect on VBL toxicity in parental S180 cells (in words)” value in data set [6] is “no effect on cell sensitivity to VBL”; in data set [6] (setting [9]), “no effect on VBL toxicity”. Besides, the “modulation of VCR and ADM cytotoxicity in parental S180 cells (in words)” value in data set [6] is “progressive sensitization of the cells to the drug with increasing analog concentrations; also recorded: similar, concentration-dependent enhancement of VCR and ADM cytotoxicity; also recorded: sensitizes S180 cells to ADM and VCR but not to VBL”; in data set [6] (setting [9]) it was “similar, concentration-dependent enhancement”; in data set [6] (listed as C-29'-deoxy vincovaline) it was “most potent modulator of intrinsic resistance to ADM and VCR”.

Regarding `CC[C@@]1(O)C[C@H]2CN(CCc3c([nH]c4ccccc34)[C@](C(=O)OC)(c3cc4c(cc3OC)N(C)[C@H]3[C@@](O)(C(=O)OC)[C@H](OC(C)=O)[C@]5(CC)C=CCN6CC[C@]43[C@@H]65)C2)C1` [vincovaline, C-14', 16', 20'-epi-VBL], in data set [1], the “reversal of high level ADM resistance (in words)” value was “limited in this activity by their own cytoxicity in the MDR cell lines”. In addition, the MNTC at 72 h amounted to 50 µM in data set [7] and 20 µM in data set [8]. Besides, in data set [3] (S-180, S180 parental and MDR cell lines, read-out: IC50 (inhibition of cell growth)), the IC50 is > 10 µM. Further, the “inherent cytotoxicity / resistance profile (in words)” value in data set [3] is “cross-resistance”. The “modulation of cellular resistance to VBL, VCR and ADM in MDR cell strains (in words)” value in data set [4] is “significant activity with MDR cells is coincident with its non-toxic concentration limit in each cell line”; in data set [4] (listed as C-14', 16', 20'-epi-VBL), “modulators of cellular resistance to VBL, VCR and ADM”. The “modulation of sensitivity of parental S180 cells to VBL, VCR and ADM (in words)” value in data set [6] is “sensitized the parental S180 cells to all three drugs”; in data set [6] (listed as Vincovaline) it was “weak modulator of drug sensitivity; also recorded: poor modulator of drug sensitivity in the parental cell line”.
